Assay results as given in patent publication US11685732B2, “MYST family histone acetyltransferase inhibitors” (Epizyme, Inc., priority 2017, dated 2023).

Experiments:
KAT-5 = KAT-5 (Homo sapiens (Human), UniProt Q92993); experiment: KAT-5 biochemical inhibition assay (SAMDI mass spectrometry)
How it was run: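 KAT-5 at 9 nM final was preincubated with serially diluted compound (2% DMSO) in 50 mM Tris pH 8.0 with 1 mM DTT. Reaction ran with 1 μM peptide substrate and 0.5 μM acetyl-CoA for 90 min at 25° C, was quenched with 0.5% formic acid, and was read by SAMDI-TOF mass spectrometry.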

KAT-6A = KAT-6A (Homo sapiens (Human), UniProt Q92794); experiment: KAT-6A biochemical inhibition assay (SAMDI mass spectrometry)
How it was run: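 Enzyme (12.5 nM final) pre-incubated with serially diluted compounds (2% DMSO final) in 50 mM Tris pH 8.0 with Tween20, gelatin and 1 mM DTT. Reaction started with 1 μM peptide substrate and 1 μM acetyl-CoA, run 90 min at 25 °C, quenched with 0.5% formic acid, read by SAMDI-TOF mass spectrometry; IC50 derived.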

KAT-7 = KAT-7 (Homo sapiens (Human), UniProt O95251); experiment: KAT-7 biochemical inhibition assay (SAMDI mass spectrometry)
How it was run: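 KAT-7 (6 nM) was pre-incubated with serially diluted compound (2% DMSO) in Tris pH 8.0 with DTT. Reaction with 1 μM peptide and 2 μM acetyl-CoA ran 120 min at 25 °C and was stopped with 0.5% formic acid. Acetylation was read by SAMDI-TOF mass spectrometry to give IC50.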

KAT-8 = KAT-8 (Homo sapiens (Human), UniProt Q9H7Z6); experiment: KAT-8 biochemical inhibition assay (SAMDI mass spectrometry)
How it was run: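 Compounds in 2% DMSO pre-incubated with 12.5 nM enzyme in 50 mM Tris pH 8.0 with Tween20, gelatin and 1 mM DTT. Then 1 μM peptide and 5 μM acetyl-CoA were added, 90 min at 25 °C; formic acid stop and SAMDI-TOF mass spectrometry for IC50.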

Sequence of KAT-7 (O95251 other isoform, or with tags, fused parts or gaps): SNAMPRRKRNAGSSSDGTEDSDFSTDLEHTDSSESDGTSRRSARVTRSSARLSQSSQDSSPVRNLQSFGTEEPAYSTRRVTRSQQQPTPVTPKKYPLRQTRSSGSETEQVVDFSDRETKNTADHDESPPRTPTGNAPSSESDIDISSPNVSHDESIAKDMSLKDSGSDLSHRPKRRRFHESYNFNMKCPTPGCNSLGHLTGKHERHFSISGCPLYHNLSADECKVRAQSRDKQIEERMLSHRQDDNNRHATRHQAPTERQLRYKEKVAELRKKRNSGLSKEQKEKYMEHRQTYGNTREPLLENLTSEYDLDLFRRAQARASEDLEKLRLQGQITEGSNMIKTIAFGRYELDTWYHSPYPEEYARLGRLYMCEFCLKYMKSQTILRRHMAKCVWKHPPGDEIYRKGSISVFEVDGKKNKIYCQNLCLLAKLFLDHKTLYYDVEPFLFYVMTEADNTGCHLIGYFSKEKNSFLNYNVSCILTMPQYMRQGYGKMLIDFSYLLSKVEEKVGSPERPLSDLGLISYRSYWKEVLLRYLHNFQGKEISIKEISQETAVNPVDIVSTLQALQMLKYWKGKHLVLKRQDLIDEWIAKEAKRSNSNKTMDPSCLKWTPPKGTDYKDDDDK
Sequence of KAT-8 (Q9H7Z6 other isoform, or with tags, fused parts or gaps): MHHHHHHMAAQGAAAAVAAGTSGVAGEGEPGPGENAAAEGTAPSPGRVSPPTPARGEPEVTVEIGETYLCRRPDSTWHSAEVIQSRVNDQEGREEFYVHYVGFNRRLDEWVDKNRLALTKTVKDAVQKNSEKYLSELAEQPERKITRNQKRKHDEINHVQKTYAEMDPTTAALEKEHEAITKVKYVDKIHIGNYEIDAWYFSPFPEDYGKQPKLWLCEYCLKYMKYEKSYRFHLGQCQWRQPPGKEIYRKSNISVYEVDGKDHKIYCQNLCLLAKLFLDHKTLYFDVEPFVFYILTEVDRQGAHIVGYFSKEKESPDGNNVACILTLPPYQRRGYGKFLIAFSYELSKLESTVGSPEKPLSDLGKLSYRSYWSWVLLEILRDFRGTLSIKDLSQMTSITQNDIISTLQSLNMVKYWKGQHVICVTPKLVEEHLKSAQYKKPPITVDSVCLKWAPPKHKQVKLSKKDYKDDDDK
Sequence of KAT-5 (Q92993 other isoform, or with tags, fused parts or gaps): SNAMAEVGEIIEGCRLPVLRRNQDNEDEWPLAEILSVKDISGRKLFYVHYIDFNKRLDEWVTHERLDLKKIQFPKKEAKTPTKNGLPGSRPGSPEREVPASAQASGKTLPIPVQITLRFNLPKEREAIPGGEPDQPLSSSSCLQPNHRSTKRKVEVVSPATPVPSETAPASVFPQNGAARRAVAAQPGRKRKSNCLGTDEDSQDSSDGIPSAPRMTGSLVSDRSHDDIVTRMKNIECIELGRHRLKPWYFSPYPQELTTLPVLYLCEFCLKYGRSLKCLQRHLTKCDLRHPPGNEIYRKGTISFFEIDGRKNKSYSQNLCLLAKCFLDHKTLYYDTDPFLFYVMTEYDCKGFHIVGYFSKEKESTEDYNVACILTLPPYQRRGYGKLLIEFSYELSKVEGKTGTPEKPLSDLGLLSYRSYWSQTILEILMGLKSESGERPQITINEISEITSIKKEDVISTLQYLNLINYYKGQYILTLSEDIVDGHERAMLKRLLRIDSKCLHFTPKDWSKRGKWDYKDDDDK
Sequence of KAT-6A (Q92794 other isoform, or with tags, fused parts or gaps): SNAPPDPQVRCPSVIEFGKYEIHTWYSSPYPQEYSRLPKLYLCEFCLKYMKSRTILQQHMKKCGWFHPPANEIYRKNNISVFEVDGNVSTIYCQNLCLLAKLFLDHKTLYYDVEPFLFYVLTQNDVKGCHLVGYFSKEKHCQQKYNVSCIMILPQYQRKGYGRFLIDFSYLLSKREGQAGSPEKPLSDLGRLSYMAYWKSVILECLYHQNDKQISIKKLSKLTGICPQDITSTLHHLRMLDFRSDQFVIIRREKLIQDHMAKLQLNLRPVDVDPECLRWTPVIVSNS

SMILES | IC50 (KAT-5) [µM] | IC50 (KAT-6A) [µM] | IC50 (KAT-7) [µM] | IC50 (KAT-8) [µM]
CCn1cc(-c2cc(C)c(F)c(C(=O)NNS(=O)(=O)C3CCCCC3)c2)cn1 [Compound I-154] | 10 to 50 | > 100 | < 10 | > 100
Cc1ncn(-c2cc(Cl)c(F)c(C(=O)NNS(=O)(=O)C3CCOCC3)c2)n1 [Compound I-77] | 10 to 50 | 10 to 50 | 10 to 50 | 10 to 50
Cc1cc(-c2cn(CCO)cn2)cc(C(=O)NNS(=O)(=O)C2CCOCC2)c1F [Compound I-143] | 50 to 100 | 50 to 100 | 50 to 100 | > 100
CN[C@H]1CC[C@H](CS(=O)(=O)NNC(=O)c2cc(-c3cn(C)cn3)cc(Cl)c2F)CC1 [Compound I-337] | 10 to 50 | 10 to 50 | < 10 | 10 to 50
CCNC(=O)N(C)C1CCCC(CS(=O)(=O)NNC(=O)c2cc(-c3cn(C)cn3)cc(Cl)c2F)C1 (stereo not shown) [Compound I-293] | < 10 | < 10 | < 10 | 10 to 50
Cc1ccn(-c2cc(Cl)c(F)c(C(=O)NNS(=O)(=O)CC3CCOCC3)c2)n1 [Compound I-43] | 10 to 50 | < 10 | 50 to 100 | > 100
CCNC(=O)N1CCC(CS(=O)(=O)NNC(=O)c2cc(-c3cn(C)cn3)cc(Cl)c2F)C1 (stereo not shown) [Compound I-64] | < 10 | < 10 | < 10 | 10 to 50
Cn1cnc(-c2cc(Cl)c(F)c(C(=O)NNS(=O)(=O)CC3CCCC(NC(=O)c4ccccc4)C3)c2)c1 (stereo not shown) [Compound I-230] | < 10 | < 10 | < 10 | 10 to 50
COCCn1cnc(-c2cc(C)c(F)c(C(=O)NNS(=O)(=O)CC3CCOCC3)c2)c1 [Compound I-140] | 10 to 50 | 10 to 50 | < 10 | > 100
Cn1ccc(-c2cc(Cl)c(F)c(C(=O)NNS(=O)(=O)CC3CCCCC3)c2)n1 [Compound I-4] | < 10 | < 10 | < 10 | 50 to 100
Cn1cnc(-c2cc(Cl)c(F)c(C(=O)NNS(=O)(=O)CC3CCCC(NC(=O)Cc4ccccc4)C3)c2)c1 (stereo not shown) [Compound I-231] | < 10 | < 10 | < 10 | 10 to 50
Cn1cnc(-c2cc(Cl)c(F)c(C(=O)NNS(=O)(=O)c3cccc(Cl)c3)c2)c1 [Compound I-324] | < 10 | < 10 | < 10 | 10 to 50
Cn1cnc(-c2ccc(F)c(C(=O)NNS(=O)(=O)C[C@H]3CCC[C@H](O)C3)c2)c1 [Compound I-305] | 10 to 50 | 10 to 50 | < 10 | 10 to 50

Next, values leading:

IC50 (KAT-5) [µM] | IC50 (KAT-6A) [µM] | IC50 (KAT-7) [µM] | IC50 (KAT-8) [µM] | SMILES
< 10 | < 10 | < 10 | < 10 | Cn1cnc(-c2cc(Cl)c(F)c(C(=O)NNS(=O)(=O)CC3CC4CCC3C4)c2)c1 (stereo not shown) [Compound I-308]
< 10 | < 10 | < 10 | 10 to 50 | Cn1cnc(-c2cc(Cl)c(F)c(C(=O)NNS(=O)(=O)C[C@H]3CCC[C@H](OCc4ccccc4)C3)c2)c1 [Compound I-288]
< 10 | < 10 | < 10 | 10 to 50 | Cn1cnc(-c2cc(Cl)c(F)c(C(=O)NNS(=O)(=O)C[C@H]3CC[C@H](NS(C)(=O)=O)CC3)c2)c1 [Compound I-211]
< 10 | < 10 | < 10 | 10 to 50 | COCCNC(=O)N1CCCC(CS(=O)(=O)NNC(=O)c2cc(-c3cn(C)cn3)cc(Cl)c2F)C1 (stereo not shown) [Compound I-217]
< 10 | < 10 | < 10 | 10 to 50 | COc1ccc(CNC(=O)N2CCC(CS(=O)(=O)NNC(=O)c3cc(-c4cn(C)cn4)cc(Cl)c3F)C2)cc1 (stereo not shown) [Compound I-181]
< 10 | < 10 | < 10 | 10 to 50 | CCNC(=O)N[C@H]1CCC[C@H](CS(=O)(=O)NNC(=O)c2cc(-c3cn(C)cn3)cc(Cl)c2F)C1 [Compound I-348]
